Results published in PMC10610289, “Novel Baicalein-Derived Inhibitors of Plasmodium falciparum” (Pathogens, 2023).
Entries after “also recorded” stand apart in the source; their conditions may differ.

Columns and labels:
Vero cells = assay: Cytotoxicity assay against Vero cell line; format: cell-based; conditions: 72 h, resazurin (CC50)
Description: Vero cells were initially washed with PBS and trypsinized, and a 1 × 10^5 cells/mL suspension was prepared. A total of 100 µL of a cell suspension was distributed to each well of the 96-well microtiter plates and allowed to adhere overnight. The next day, serial dilutions of selected test compounds were made in the plates and incubated for 72 h. After 72 h, a ten-microliter resazurin solution (12.5 mg/100 mL PBS) was added to each well. After 3 h, plates were read using a fluorescence reader (Biotek) at an excitation wavelength of 530 nm and an emission wavelength of 590 nm (Sperandeo and Brun, 2003). The MS-EXEL template determined the cytotoxic concentration (CC50) for selected compounds.

[1] = Body weight of mice during treatment; format: in vivo, Swiss mice; conditions: 100 mg/kg oral
Source text: One crucial aspect of evaluating potential malaria treatments is assessing their safety and tolerance in the host organism. In this regard, the present study closely monitored the body weights of the mice throughout the drug treatment.

[2] = test system: Dd2 GNF156 (Pfcarl Ile1139Lys); assay: Cross-resistance panel, Dd2 GNF156; format: cell-based, Plasmodium falciparum
Description: (§1) Parasite lines used in the study were P. falciparum 3D7 (Pf3D7 Chloroquine-sensitive) and Plasmodium falciparum K1 (PfK1 Chloroquine-resistant) sourced from the Malaria Research and Reference Reagent Resource Center (MR4), ATCC, Manassas, VA, USA. FNDR-10132 was tested against a cross-resistance panel at Swiss TPH, Allschwil, Switzerland.

Plasma stability = format: in vitro ADME
Source text: (§2) Table 5 The compound FNDR-10132 progression profile. | column: FNDR-10132

[3] = test system: Dd2 390048 (Pfpi4k S743T); assay: Cross-resistance panel, Dd2 390048; format: cell-based, Plasmodium falciparum
Description: as §1

THP-1 = assay: Cytotoxicity in THP-1; format: cell-based
Source text: as §2

[4] = test system: Dd2 ELQ300 (PfcytB Ile22Leu); assay: Cross-resistance panel, Dd2 ELQ300; format: cell-based, Plasmodium falciparum
Description: as §1

Dd2 (wt) = assay: Cross-resistance panel, Dd2 wt; format: cell-based, Plasmodium falciparum; conditions: strain Dd2 wt
Description: as §1

[5] = test system: Plasmodium yoelii N67 (Chloroquine-resistant); assay: In vivo antimalarial assay in Swiss mice; conditions: 100 mg/kg ×4 days, oral
Description: All animal experiments were performed following the institutional animal ethics committee (IAEC). Laboratory-bred Swiss albino mice (both male and female) weighing 20–22 g were obtained from breeding colonies at the National Laboratory Animal Centre at the CSIR-CDRI, Lucknow, with due permission from the animal ethics committee (IAEC/2018/16/Renew-1/Dated-05/04/2019). The rodent malaria parasite Plasmodium yoelii N67 (chloroquine-resistant) was used for the study. This parasite was maintained by serial passage in healthy Swiss mice of either sex.
Swiss mice were inoculated with a standard inoculum of 1 × 106 P. yoelii N67 parasitized erythrocytes intraperitoneally. The 22-gauge hypodermic needle was used to infect the mice and was injected with a 0.5 mL (infected RBCs) volume. Treatment was initiated from day 0 to day 3 (total 4 days) once daily, and different routes of administration, viz., oral, intravenous, intraperitoneally, and subcutaneous, were used. For in vivo evaluation, compounds were dissolved in 300 µL of DMSO and were made up with MilliQ. The efficacy of in vitro active compounds was evaluated for in vivo activity at different doses, and the desired daily dose was administered in a 0.2 mL volume. A drop of blood from the mice’s tails was collected regularly throughout the experiment for parasitemia estimation. The group’s mean value was calculated using the percentage suppression of parasitemia compared with the untreated control group.

[6] = test system: P. falciparum male gametocytes; assay: P. falciparum dual gamete formation assay (PfDGFA), male; format: cell-based; conditions: Plasmodium falciparum, read-out: DGF Assay—Inhibition, male
Description: The FNDR-10132 was evaluated in a male and female gametocyte functional viability assay by following the procedure described in Ruecker et al..

With `CCCCCCc1ccc(-c2cc(=O)c3c(O)c(O)c(O)cc3o2)cc1` [FNDR-10132] the “Cytotoxicity Vero Cell” value (Vero cells) was 174 µM, the “Weight of Mice Day after the Last Dose of Treatment (Day 4)” value [1] was 27.5 gm and the “Weight of Mice at the Initiation of Treatment (Day 0)” value [1] was 25 gm. For the same compound, the “weight loss / tolerability (in words)” value [1] was “no significant weight loss; also recorded: well-tolerated”, the “Weight Gain” value ([1]; Day 0 to Day 4) was 2.5 gm and the IC50 ([2]; Plasmodium falciparum, DD2) was 292 nM. For the same compound, the “Fold shift IC50 rel. Dd2” value ([2]; strain Dd2 GNF156) was 0.9, the “Plasma Stability” value (Plasma stability; at 30 min) was 87.61% and the “Plasma Stability” value (Plasma stability; at 45 min) was 80.97%. The IC50 ([3]; Plasmodium falciparum, DD2) was 290 nM, the “Fold shift IC50 rel. Dd2” value ([3]; strain Dd2 390048) was 0.9 and the “Cytotoxicity THP-1” value (THP-1) was 90 µM. The IC50 ([4]; Plasmodium falciparum, DD2) was 238 nM, the “Fold shift IC50 rel. Dd2” value ([4]; strain Dd2 ELQ300) was 0.7 and the IC50 (Dd2 (wt); Plasmodium falciparum) was 328 nM. The “Fold shift IC50 rel. Dd2” value (Dd2 (wt)) was 1.0, the “% Parasitemia ± S.D on Day 4” value [5] was 8.5 ± 1.39 (4) % and the “% Parasitemia ± S.D on Day 7” value [5] was 26.15 ± 8.70 (4) %. For the same compound, the “% Parasitemia ± S.D on Day 10” value [5] was 24.07 ± 3.69 (3) %, the “% Parasitemia ± S.D on Day 14” value [5] was 46.5 ± 4.2 (2) % and the “% Parasitemia ± S.D on Day 21” value [5] was “Dead”. The “Mean Survival Time (MST) Days ± SD” value [5] was 13.5 ± 2.3 days, the “Day 4 % Suppression” value ([5]; Swiss mice) was 44% and the inhibition at 1 µM [6] was 1.6%.
